Source: the NIST ThermoML archive (doi:10.1016/j.jct.2014.05.016)
Numbers after ± are expanded uncertainties.

What was measured:
[1] = xn = mol fraction of the nth substance listed; details: 100 kPa, Liquid; for viscosity: Concentric cylinders viscometry; for mass density: Vibrating tube method
[2] = 100 kPa, Liquid; for viscosity: Concentric cylinders viscometry; for mass density: Vibrating tube method

CCCC[n+]1ccccc1.F[B-](F)(F)F [1-butylpyridinium tetrafluoroborate] + C[n+]1ccn(CCO)c1.F[B-](F)(F)F
[1], x2 = 0
Details	mass density [kg/m3]	viscosity [mPa·s]
293.15 K	1216.6 ± 1.1	228.9 ± 19
298.15 K	1213.1 ± 1.1	166.9 ± 14
303.15 K	1209.6 ± 1.1	124.5 ± 10
308.15 K	1206.2 ± 1.1	94.97 ± 7.6
313.15 K	1202.8 ± 1.1	73.94 ± 5.9
318.15 K	1199.4 ± 1.1	58.64 ± 4.7
323.15 K	1196 ± 1.1	47.29 ± 3.8
328.15 K	1192.6 ± 1.1	38.71 ± 3.1
333.15 K	1189.2 ± 1.1	32.12 ± 2.6
338.15 K	1185.8 ± 1.1	26.98 ± 2.2
343.15 K	1182.5 ± 1.1	22.97 ± 1.8

CCCCn1cc[n+](C)c1.F[B-](F)(F)F [1-butyl-3-methylimidazolium tetrafluoroborate]
[2]
Details	mass density [kg/m3]	viscosity [mPa·s]
293.15 K	1204 ± 1.1	141.1 ± 12
298.15 K	1200.5 ± 1.1	107.5 ± 8.7
303.15 K	1197 ± 1.1	83.48 ± 6.7
308.15 K	1193.4 ± 1.1	65.97 ± 5.3
313.15 K	1189.9 ± 1.1	53 ± 4.2
318.15 K	1186.3 ± 1.1	43.21 ± 3.5
323.15 K	1182.8 ± 1.1	35.7 ± 2.9
328.15 K	1179.3 ± 1.1	29.86 ± 2.4
333.15 K	1175.8 ± 1.1	25.26 ± 2
338.15 K	1172.3 ± 1.1	21.59 ± 1.7
343.15 K	1168.9 ± 1.1	18.62 ± 1.5

CCCCn1cc[n+](C)c1.F[B-](F)(F)F [1-butyl-3-methylimidazolium tetrafluoroborate] + C[n+]1ccn(CCO)c1.F[B-](F)(F)F
[1], x2 = 0
Details	mass density [kg/m3]	viscosity [mPa·s]
293.15 K	1204 ± 1.1	141.1 ± 12
298.15 K	1200.5 ± 1.1	107.5 ± 8.7
303.15 K	1197 ± 1.1	83.48 ± 6.7
308.15 K	1193.4 ± 1.1	65.97 ± 5.3
313.15 K	1189.9 ± 1.1	53 ± 4.2
318.15 K	1186.3 ± 1.1	43.21 ± 3.5
323.15 K	1182.8 ± 1.1	35.7 ± 2.9
328.15 K	1179.3 ± 1.1	29.86 ± 2.4
333.15 K	1175.8 ± 1.1	25.26 ± 2
338.15 K	1172.3 ± 1.1	21.59 ± 1.7
343.15 K	1168.9 ± 1.1	18.62 ± 1.5

C[n+]1ccn(CCO)c1.F[B-](F)(F)F [1-(2-hydroxyethyl)-3-methylimidazolium tetrafluoroborate]
[2]
Details	mass density [kg/m3]	viscosity [mPa·s]
293.15 K	1362.4 ± 1.1	153.6 ± 12
298.15 K	1358.7 ± 1.1	115.1 ± 9.3
303.15 K	1354.8 ± 1.1	87.98 ± 7.1
308.15 K	1351.2 ± 1.1	68.59 ± 5.5
313.15 K	1347.4 ± 1.1	54.81 ± 4.4
318.15 K	1343.7 ± 1.1	44.44 ± 3.6
323.15 K	1340.1 ± 1.1	36.5 ± 2.9
328.15 K	1336.4 ± 1.1	30.46 ± 2.4
333.15 K	1332.8 ± 1.1	25.73 ± 2.1
338.15 K	1329.2 ± 1.1	21.98 ± 1.8
343.15 K	1325.5 ± 1.1	18.95 ± 1.5

CCCCn1cc[n+](C)c1.F[B-](F)(F)F [1-butyl-3-methylimidazolium tetrafluoroborate] + CCCC[n+]1ccccc1.F[B-](F)(F)F
[1], x1 = 1
Details	mass density [kg/m3]	viscosity [mPa·s]
293.15 K	1204 ± 1.1	141.1 ± 12
298.15 K	1200.5 ± 1.1	107.5 ± 8.7
303.15 K	1197 ± 1.1	83.48 ± 6.7
308.15 K	1193.4 ± 1.1	65.97 ± 5.3
313.15 K	1189.9 ± 1.1	53 ± 4.2
318.15 K	1186.3 ± 1.1	43.21 ± 3.5
323.15 K	1182.8 ± 1.1	35.7 ± 2.9
328.15 K	1179.3 ± 1.1	29.86 ± 2.4
333.15 K	1175.8 ± 1.1	25.26 ± 2
338.15 K	1172.3 ± 1.1	21.59 ± 1.7
343.15 K	1168.9 ± 1.1	18.62 ± 1.5

CCCC[n+]1ccccc1.F[B-](F)(F)F [1-butylpyridinium tetrafluoroborate]
[2]
Details	mass density [kg/m3]	viscosity [mPa·s]
293.15 K	1216.6 ± 1.1	228.9 ± 19
298.15 K	1213.1 ± 1.1	166.9 ± 14
303.15 K	1209.6 ± 1.1	124.5 ± 10
308.15 K	1206.2 ± 1.1	94.97 ± 7.6
313.15 K	1202.8 ± 1.1	73.94 ± 5.9
318.15 K	1199.4 ± 1.1	58.64 ± 4.7
323.15 K	1196 ± 1.1	47.29 ± 3.8
328.15 K	1192.6 ± 1.1	38.71 ± 3.1
333.15 K	1189.2 ± 1.1	32.12 ± 2.6
338.15 K	1185.8 ± 1.1	26.98 ± 2.2
343.15 K	1182.5 ± 1.1	22.97 ± 1.8
